Measurements as given in paper PMC3543424, “Antitumor Activity of Antimicrobial Peptides Containing CisoDGRC in CD13 Negative Breast Cancer Cells” (PLoS ONE, 2013).
*1 amine or outer side, *2 acyl side, *3 side chain or, on linkers, in order; H or OH if unused. Where a SMILES comes first, the peptide text is derived from it. Bridges are numbered along the chain shown (N, C = ends). [ ]: non-standard residue; d: D form. βAsp = O=C(O)[C@H](CC(=O)[*:2])N[*:1]

Legend:
[1] = test system: lung and liver; parameters: species or system BALB/cnu-nu athymic nude mice; details: mouse, in vivo, iv, 4 mg/kg
Text: Terminal deoxynucleotidyl teansferase-mediated dUTP nick end-labeling (TUNEL) were examined in the lung and liver using TdT In Situ Apoptosis Detection Kit (Trevigen, Gaithersburg, Maryland, USA) following the manufacturer's protocols. Apoptosis cells were identified as having brown nuclei under a light microscope. The number of apoptosis cells was counted in five random fields (×400) in a blinded manner.

[2] = test system: MDA-MB-231 cells; assay type: cell-based, human
Description: (§1) The MCF-7 and MDA-MB-231 cells were cultured in 96-well plates at a density of 5×10^4 cells/well. CDAK and CRLK were added to different wells, ranging from 10 µg/ml to 200 µg/ml, respectively. After 24 h, 48 h and 72 h, 3-[4,5-dimethylthiazol- 2-yl]-2,5-diphenyltetrazolium bromide (MTT; Sigma-Aldrich, St. Louis, MO, USA) was added to each well and incubated for 4 h. The MTT was dissolved in 200 µL of Dimethyl sulfoxide (DMSO). Absorbance was detected using a microplate reader at 490 nm. Wells without peptides were used to control cell viability, representing 100% cell survival. Wells without cells were used for the blank of the spectrophotometer.

[3] = test system: MCF-7 cells; assay type: cell-based, human
Description: as §1

[4] = test system: HFF; details: MTT, 24 h
[5] = test system: HUVEC; details: MTT, 24 h
[6] = test system: MDA-MB-231 cells; assay: DNA ladder (DNA fragmentation) assay; assay type: cell-based, human; details: MDA-MB-231, 24 h; CDAK 212 µg/ml, CRLK 200 µg/ml; 1% agarose gel
Description: (§2) For DNA fragmentation analysis, DAN of cells which were treated with CDAK (190 µg/ml and 212 µg/ml), CRLK (200 µg/ml) and control (PBS) for 24 h were extracted using a selective apoptotic DNA ladder extraction KIT (Biomed Company, Beijing, China) and were analyzed using 1% agarose gels. DNA was visualized with ethidium bromide staining.

[7] = test system: MCF-7 cells; assay: DNA ladder (DNA fragmentation) assay; assay type: cell-based, human; details: MCF-7, 24 h; CDAK 190 µg/ml, CRLK 200 µg/ml; 1% agarose gel
Description: as §2

[8] = test system: MDA-MB-231 xenograft; assay: MDA-MB-231 xenograft growth in athymic nude mice; assay type: in vivo, BALB/cnu-nu athymic nude mice; details: 4 mg/kg intravenously, three times a week for three weeks, five mice per group
Description: The experiment was approved by the Animal Care and Use Committee of Xi'an Jiaotong University. MDA-MB-231 cells (2×10^6) were injected subcutaneously into the right flank of 6- to 9-week-old female BALB/cnu-nu athymic nude mice (Shanghai Silaike Laboratory Animal Co., Ltd, Shanghai, China) weighing 18 to 20 g. When the tumor reached 60 mm^3 in size, the mice were randomized into three groups: (1) CDAK (4 mg/kg); (2) CRLK (4 mg/kg); and (3) saline (control). They were then injected intravenously (50 µL/injection) three times a week for three weeks. Tumor volume was measured three times a week using calipers to calculate the tumor size using the following formula: length×width^2×0.5. All values are expressed as the mean ± SD.
Tumor-bearing athymic nude mice were sacrificed and the weights of the tumors were recorded. The tumor tissue, liver as well as lung tissues of mice were paraffin-embedded. The tumor paraffin sections were incubated for 10 minutes with 3% H2O2 deionized water to eliminate the endogenous peroxidase activity, washed in PBS three times for five minutes, 5% goat serum was added for 15 minutes, then incubated with mouse monoclonal CD105 antibody (Abcam, Cambridge, UK) at 4°C overnight and washed with PBS three times for five minutes. […]

[9] = test system: MDA-MB-231 xenograft; assay: Tumor angiogenesis, anti-CD105 immunohistochemistry (microvessel density); assay type: in vivo, BALB/cnu-nu athymic nude mice; details: 4 mg/kg intravenously, tumor sections, P<0.05
Description: Tumor-bearing athymic nude mice were sacrificed and the weights of the tumors were recorded. The tumor tissue, liver as well as lung tissues of mice were paraffin-embedded. The tumor paraffin sections were incubated for 10 minutes with 3% H2O2 deionized water to eliminate the endogenous peroxidase activity, washed in PBS three times for five minutes, 5% goat serum was added for 15 minutes, then incubated with mouse monoclonal CD105 antibody (Abcam, Cambridge, UK) at 4°C overnight and washed with PBS three times for five minutes. The biotin-labeled goat anti-mouse IgG were incubated with sections at 37°C for 15 minutes, and then the sections were washed by PBS three times for five minutes. Horseradish peroxidase-avidin enzyme working solution was added at 37°C for 15 minutes and washed with PBS. DAB was added to develop the color, and the nuclei were counterstained mildly with hematoxylin. The liver and lung paraffin sections were stained with hemaetoxylin and eosin (HE) and were independently evluated by two pathologists.

[10] = test system: MDA-MB-231 cells; assay: Cell cycle, BrdU/PI flow cytometry; assay type: cell-based, human; details: MDA-MB-231, 24 h, CDAK 212 µg/ml, CRLK 200 µg/ml
Description: (§3) After being incubated with CDAK (190 µg/ml and 212 µg/ml), CRLK (200 µg/ml) and control (PBS) for 24 h, 20 µM BrdU (Sigma-Aldrich, St. Louis, MO, USA) was added to the media for 30 min. Cells were harvested and fixed in iced-cold 75% ethanol for 24 h. Then, the cells were treated with 4N HCL, neutralized by 0.1 M borax, and washed with PBS containing 0.05% bovine serum albumin (BSA). The cells were incubated sequentially with anti-BrdU antibody (santa cruz biotechnology, California, US) and FITC-conjugate anti-mouse secondary antibody in the presence of 0.5%BSA and 0.5%Tween-20. Cells were added PI (50 µg/ml) and RNase A (50 µg/ml) for 20 minutes and analyzed by flow cytometry. Select a forward scatter (FSC) versus side scatter (SSC) window defined single cells and exclude cell doublets.

[11] = test system: MCF-7 cells; assay: Cell cycle, BrdU/PI flow cytometry; assay type: cell-based, human; details: MCF-7, 24 h, CDAK 190 µg/ml, CRLK 200 µg/ml
Description: as §3

Molecule	apoptosis rate (%) in liver [1]	apoptosis rate (%) in lung [1] [%]	concentration with significant cytotoxicity [2] [µg/mL]	IC50 (peptide concentration that induces 50% inhibition of cell growth) ([2]; MDA-MB-231, MTT, 24 h) [µg/mL]	concentration with significant cytotoxicity [3] [µg/mL]	IC50 (peptide concentration that induces 50% inhibition of cell growth) ([3]; MCF-7, MTT, 24 h) [µg/mL]	IC50 (peptide concentration that induces 50% inhibition of cell growth) [4] [µg/mL]	IC50 (peptide concentration that induces 50% inhibition of cell growth) [5] [µg/mL]	formation of DNA nucleosome ladder [6]	formation of DNA nucleosome ladder [7]	tumor volume compared with control group [8]	inhibition of angiogenesis (microvessel density, anti-CD105) [9]	cells in S phase [10] [%]	cells in S phase [11] [%]
CC[C@H](C)[C@H](NC(=O)[C@H](CC(C)C)NC(=O)[C@H](CC(C)C)NC(=O)[C@@H]1CSSC[C@H](N)C(=O)N[C@H](C(=O)O)CC(=O)NCC(=O)N[C@@H](CCCNC(=N)N)C(=O)N1)C(=O)N[C@H](C(=O)N[C@@H](CCCCN)C(=O)N[C@@H](CC(C)C)C(=O)N[C@@H](C)C(=O)N[C@@H](CCCCN)C(=O)N[C@@H](CC(C)C)C(=O)N[C@@H](C)C(=O)N[C@@H](CCCCN)C(=O)N[C@@H](CCCCN)C(=O)N[C@@H](CC(C)C)C(=O)N[C@@H](C)C(=O)N[C@@H](CCCCN)C(=O)N[C@@H](CC(C)C)C(=O)N[C@@H](C)C(=O)N[C@@H](CCCCN)C(=O)O)[C@@H](C)CC [CDAK] (H-C[βAsp]GRCLLIIKLAKLAKKLAKLAK-OH; disulfide 1-5)	0.38%±0.14	0.16±0.02	> 40	212	> 40	190	912	861	–	–	–	–	–	–
CRDGCALKAIAKLKLKKLILALK [CRLK]	0.35%±0.23	0.17±0.01	–	–	–	–	–	–	no DNA ladder was detected	no DNA ladder was detected	did not reach a statistically significance	not	23.3	19.7
